According to patent US8207310B2, “Antibodies to proteolysis inducing factor (PIF) receptor and methods of use thereof” (Ashton University, priority 2006, dated 2012):
“Also recorded” adds a separate entry of the source.

Tested on: PIF receptors on C2C12 membranes
Test: Competitive binding of [35S]PIF to C2C12 membranes
Parameters: species or system mouse
Settings: result in words
Description: Competitive binding of [^35S]PIF C2C12 membranes (200 μg) in PBS (250 μl) were incubated with 1, 5, 10, 50, 100, 500 or 1000 ng of either monoclonal antibody, chondroitin, dermatan or heparan sulfate and 20 nM (480 ng) of [^35S]PIF overnight at 4° C. The bound radioactivity was determined from the radioactivity in the pellet obtained by centrifugation at 13,000 g for 5 min.
The Kaff was determined according to a modification (Clark, B. R. and Todd, C. W. Avidin as a precipitant for biotin-labelled antibody in a radioimmunoassay for carcinoembryonic antigen. Anal. Biochem., 121: 257-262, 1982.) of the method of Muller (Muller, R.
Calculation of average antibody affinity in anti-hapten sera from data obtained by competitive radioimmunoassay. J. Immunol. Methods, 34: 345-352, 1980.). Kaff=^1/(It−Tt)(1−[…]+0.5b^2) where It is the inhibitor concentration at 50% inhibition of PIF binding; Tt the total PIF concentration; b the fraction of PIF bound in the absence of inhibitor.

Substance | inhibition of binding of PIF to receptors on C2C12 membranes
chondroitin sulfate | competitive inhibition; also recorded: specifically inhibited
heparan sulfate | not
